The values below come from patent publication US7132287B2, “Method for neural stem cell differentiation using 5HT-1A agonists” (Psychiatric Genomics, Inc., priority 2001, dated 2006).

Molecules are shown by their SMILES. Several values for one entry are separate records, joined by “and”; a condition that tells them apart may be missing. Equal values may be shown once.

Test [1] has as its system cortical neural stem cells. As to the kind of experiment: Neuronal differentiation of cortical neural stem cells (β tubulin III / TuJ-1 immunofluorescence). As to conditions: 1 μM Buspirone alone, 6 days. Type of test: cell-based, rat. From the text: (§1) Isolation of cortical and striatal stem cells. Timed pregnant Sprague Dawley rats obtained from Taconic at embryonic age E14-E15 were sacrificed as described above and the uterus removed and placed in ice cold PBS in a 10 cm petridish. After rinsing the uterus in PBS, embryos were removed from the uterus, rinsed in PBS and collected in cold HBSS (buffered with HEPES and sodium bicarbonate) in a 10 cm petridish and placed on ice.
(§2) The cortex and striatum was dissected under a microscope and collected in a 15 ml tube of HBSS, on ice. Removal of meninges is not possible at this age, and no attempt was made to do so. If the dissected tissue was in large enough chunks and settle to the bottom of the tube, no centrifugation was performed. Alternatively, the tube was centrifuged at 1000 rpm for 5 minutes to pellet the tissue. Following centrifugation, the 15 ml tube containing the tissue was sprayed with 70% ethanol and taken into the sterile hood.
(§3) The HBSS was aspirated and replaced with 10 ml of DMEM/F12. The tissue was collected at the bottom of the tube by gravity or centrifugation, medium was aspirated, and 1 ml of DMEM/F12 was to the tissue. Cells were dissociated by trituration as described above, followed by addition of 5 ml of DMEM/F12 and a second round of trituration. […] The tubes were placed standing 5–10 minutes in the hood to allow larger particles and meninges to settle. While the meninges were settling, a cell count was made. 10 μl of the cell suspension is diluted with trypan blue and counted in a hemocytometer. Cells were counted in the four outer chambers with the larger squares, and cell count calculated assuming that the volume enclosed in each of the chambers was […].
(§4) Plating, expansion and passaging of cortical and striatal stem cells A generous amount of the triturated cell suspension was left in the original 15 ml tube to avoid fibroblast contamination in cultures. About 4–5 ml of the 6 ml of cells suspension was used for plating. Cells were plated at a concentration of approximately 1×10^6 per 10 cm dish. This culture is designated P0 (passage 0).
(§5) Following plating cells were expanded for about 3–4 days. The cultures were never permitted to reach more than 70% confluency. Cultures were then passaged as follows: 5 ml of HBSS was added to each 10 cm dish and the cells incubated at 37° C. for 15–45 minutes, or until sufficient numbers of the stem cells were rounded up. It is not expected that all cells in the culture will round up as there are several cell types in the culture at P0. The pH of the HBSS should be neutral at all times during this incubation. Cells were then removed from the dish by pipetting with a 5 ml pipette, or by scraping with a policeman, collected in a 15 or 50 ml conical tube, and centrifuged at 1000 g for 5 minutes. Cells were gently re-suspended in medium, counted, and plated at a density of about 1×10^6 per 10 cm dish.
(§6) Drug treatments. Stem cells obtained as described above were treated with drugs and subjected to differentiation protocols in the second passage. Cells were plated at a density of 1×10^4 cells per well of a 12-well petridish (Falcon).
Drug treatments were started on the next day. […] The WAY 100635 antagonist compound was used simultaneously with buspirone or serotonin in the blocking experiments. Positive and negative control cultures were those treated with BDNF and FGF alone, respectively.
Cells were treated with the designated concentrations of drugs or combinations thereof, daily, and were fed every alternate day with fresh medium. Experiments were maintained for about 6–10 days in most cases.

The next test has as its system striatal stem cells. As to the kind of experiment: Differentiation of striatal stem cells (TuJ1 positive cells). Type of test: cell-based, rat. As to conditions: for % TuJ1 positive cells: striatal stem cells, Table 6.
Excerpt: as §1, §2, §3, §4, §5, §6
Drug treatments were started on the next day. […] The WAY 100635 antagonist compound was used simultaneously with buspirone or serotonin in the blocking experiments. Positive and negative control cultures were those treated with BDNF and FGF alone, respectively. […]

Setting [2] is: TuJ-1 staining, listed as Buspirone.

With `O=C1CC2(CCCC2)CC(=O)N1CCCCN1CCN(c2ncccn2)CC1` [buspirone, 8-[4-[4-(2-pyrimidinyl)-1-piperazinyl]butyl]-8-azaspiro[4,5]decane-7,9-dione], the “Total No. of Cells” value in test [1] was 1168 and 1228. For the same molecule, the “% Fluorescent Cells” value was “significant neuronal differentiation” in test [1] (TuJ-1 staining); 27.27% and 20.15% in test [1] (setting [2]). Further, the “No. Fluorescent Cells” value in test [1] (setting [2]) was 320 and 260. For the same molecule, the “% TuJ1 positive cells” value in the test with striatal stem cells (100 nM) amounted to 54.4 ± 2.1%; in the test with striatal stem cells (500 nM), 64.8 ± 2.1%; with striatal stem cells (10 μM), 67.9 ± 10.2%; with striatal stem cells (100 μM) it was 68.5 ± 6.5%. In addition, the “promotion of differentiation compared to untreated control cultures (in words)” value with striatal stem cells (striatum, concentrations as low as 100 nM) is on record as “able to promote differentiation significantly”.
